The values that follow come from patent publication US20220275389A1, “MODIFIED EXOPOLYSACCHARIDE RECEPTORS FOR RECOGNIZING AND STRUCTURING MICROBIOTA” (Aarhus Universitet, priority 2019, published 2022).

One assay relates to L. japonicus EPR3a ED. Description: Microscale thermophoresis (MST) binding to EPR3a ED. The settings on record: for binding of EPR3a ED to polysaccharide (detectable or not): FIGS. 11I-11J. The protocol:
Purified EPR3 was fluorescently labeled using the Monolith NT.115TM Protein Labelling Kit Blue NHS (NanoTemper Technologies) according to the manufacturer's instructions. All experiments were performed in MST buffer (50 mM K2PO4, pH 7.8, 500 mM NaCl, and 0.05% Tween-20) with a constant concentration of EPR3 ED (100 nM and ˜50% labelling efficiency) and dilution series of the various ligands. The samples were incubated for 30 minutes at room temperature before loaded into standard capillaries for measurements on a Monolith NT.115 TM instrument (NanoTemper Technologies) at 25° C., with blue LED power of 50% and MST power of 20%. To accurately measure the experimental errors and ensure data reproducibility, all MST binding experiments were performed with at least three independently purified samples of EPR3. At the highest ligand concentrations, weak ligand binding to the fluorescent label itself was occasionally observed. To accurately account for this unspecific binding ligand binding to 50 nM free fluorescent label was measured and this small background was subtracted contribution from all the respective MST binding measurements. The competition experiments were performed by pre-incubating labeled EPR3 ED with 250 μM R7A EPS or R7A exoU EPS and assessing the binding of EPR3 ED to titrated R7A exoU EPS or R7A EPS, respectively. Binding data were processed with the GraphPad Prism 7 software (GraphPad Software, Inc.) and the equilibrium dissociation constants (Kd) values (95% confidence interval) were calculated using the sigmoidal dose-response equations.
The EPR3a ED was expressed in insect cells, and the protein was purified as described in Example 1 (FIG. 11D).
MST experiments were performed as described in Example 2 (FIG. 11C, FIGS. 11E-11J).

Assay [1] deals with Lotus japonicus EPR3 ectodomain (EPR3 ED, residues 33-232), wild type, EPR3 SEQ ID NO: 61 (Lotus japonicus, UniProt D3KU53). Description: Microscale thermophoresis (MST) binding of EPS ligands to EPR3 ectodomain (ED). The note with it: 100 nM EPR3 ED, pH 7.8, 25° C.; for Kd: 95% confidence interval, read-out: equilibrium dissociation constant (Kd). The protocol: Expression and purification of L. japonicus ecotype Gifu EPR3 ectodomain (ED) was performed as described previously (Kawaharada, Y et al. Nature 2015 523: 308-312). In brief, DNA encoding residues 33-232 of EPR3 (corresponding to the EPR3 ED) containing an N-terminal gp67 secretion signal and a C-terminal 6×His-tag was codon-optimized for insect cell expression (GenScript) and inserted into the pOET2 vector (Oxford Expression Technologies). Baculoviruses, used for infecting Sf9 cells cultured in suspension in serum-free HyClone SFX-Insect medium (FisherScientific), were obtained using the flashBAC GOLD system (OET). Five days post inoculation, the media was dialyzed against buffer containing 50 mM Tris-HCl pH 8.0 and 200 mM NaCl before centrifugation and loaded on a HisTrap excel affinity column (GE Healthcare). The eluted protein was dialyzed against buffer containing 50 mM Tris-HCl pH 8.0 and 200 mM NaCl, and further purified on a HisTrap HP affinity column (GE Healthcare). For crystallization, the EPR3 ED was treated with PNGase F (1:15 w/w ratio) for 1 hour at room temperature and overnight at 4° C. to remove N-linked oligosaccharides. EPR3 ED was then purified on a Mono S 5/50 column (GE Healthcare) and eluted with a linear gradient of 50-300 mM NaCl and 50 mM Tris-HCl, pH 7.0. Both glycosylated and de-glycosylated EPR3 ED were finally purified on a Superdex 75 10/300 column (GE Healthcare) in gel filtration buffer containing 50 mM KH2-PO4 pH 7.8 and 200 mM NaCl (for microscale thermophoresis binding experiments) or 50 mM Tris-HCl pH 8.0 and 200 mM NaCl (for crystallization).
Low molecular mass (LMM) exopolysaccharides (EPS) were isolated from various rhizobial strains including Mesorhizobium loti strain R7A ndvB6, R. leguminosarum bv. viciae 3855 (this work) and Sinorhizobium meliloti B578 (Griffins, J. S. et al. Mol. Microbiol. 2008 69: 479-490) that were deficient in cyclic glucan production were grown on minimal media with glucose as the sole source of carbon. The LMM EPS was isolated from the bacterial culture supernatants and purified via sequential precipitation with 6 volumes of 99.8% EtOH (v/v), followed by 9 volumes EtOH (v/v) and purified by size exclusion chromatography (SEC) as previously described (Muszyński, A. et al. J. Biol. Chem. 2016 291: 20946-20961). O-acetyl groups were removed chemically by mild overnight treatment of native EPS samples with 12.5% NH4OH (Muszyński, A. et al. J. Biol. Chem. 2016 291: 20946-20961). […] The glycosyl composition and linkage was determined as previously described (Muszyński, A. et al. J. Biol. Chem. 2016 291: 20946-20961). […]
In general terms: In MST a laser heats a spot of the sample, and binding alters the fluorescence response.

Assay [2] has as its system Lotus japonicus EPR3a ectodomain (EPR3a ED), wild type, EPR3a SEQ ID NO: 62. Nature of the assay: Microscale thermophoresis (MST) binding of polysaccharides to EPR3a ectodomain (ED). The settings on record: for Kd: FIGS. 11E-11H, preparation of FIG. 11D. On the procedure: Low molecular mass (LMM) exopolysaccharides (EPS) were isolated from various rhizobial strains including Mesorhizobium loti strain R7A ndvB6, R. leguminosarum bv. viciae 3855 (this work) and Sinorhizobium meliloti B578 (Griffins, J. S. et al. Mol. Microbiol. 2008 69: 479-490) that were deficient in cyclic glucan production were grown on minimal media with glucose as the sole source of carbon. The LMM EPS was isolated from the bacterial culture supernatants and purified via sequential precipitation with 6 volumes of 99.8% EtOH (v/v), followed by 9 volumes EtOH (v/v) and purified by size exclusion chromatography (SEC) as previously described (Muszyński, A. et al. J. Biol. Chem. 2016 291: 20946-20961). O-acetyl groups were removed chemically by mild overnight treatment of native EPS samples with 12.5% NH4OH (Muszyński, A. et al. J. Biol. Chem. 2016 291: 20946-20961). Native and de-O-acetylated samples were verified via matrix-assisted laser desorption/ionization time of flight mass spectrometry (MALDI-TOF MS) analysis on Applied Biosystems AB SCIEX TOF/TOF 5800 system in either negative or positive reflector ionization modes. The glycosyl composition and linkage was determined as previously described (Muszyński, A. et al. J. Biol. Chem. 2016 291: 20946-20961).
Purified EPR3 was fluorescently labeled using the Monolith NT.115TM Protein Labelling Kit Blue NHS (NanoTemper Technologies) according to the manufacturer's instructions. […] To accurately account for this unspecific binding ligand binding to 50 nM free fluorescent label was measured and this small background was subtracted contribution from all the respective MST binding measurements. […] Binding data were processed with the GraphPad Prism 7 software (GraphPad Software, Inc.) and the equilibrium dissociation constants (Kd) values (95% confidence interval) were calculated using the sigmoidal dose-response equations. […]

Where [3] appears, read: FIGS. 11E-11H, n=3, EPR3a ED preparation of FIG. 11D (figure legend), read-out: equilibrium dissociation constant (Kd).

“Also recorded” adds a separate entry of the source. Read-outs that look alike come from different tables or passages of the source.

Chain of Lotus japonicus EPR3 ectodomain (EPR3 ED, residues 33-232), wild type, EPR3 SEQ ID NO: 61 (D3KU53 entry or part of it): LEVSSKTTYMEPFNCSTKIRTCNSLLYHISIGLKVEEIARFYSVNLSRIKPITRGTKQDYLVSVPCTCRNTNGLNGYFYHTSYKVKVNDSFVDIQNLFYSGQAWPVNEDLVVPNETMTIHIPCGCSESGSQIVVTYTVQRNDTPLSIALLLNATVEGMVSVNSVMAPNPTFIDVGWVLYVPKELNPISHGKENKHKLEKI

On to maltodextrin, for which, in the assay with L. japonicus EPR3a ED (n=3), the “binding of EPR3a ED to polysaccharide (detectable or not)” value is “did not bind; also recorded: absence of binding”.

Turning to “(2,3/3-OAc)β-D-RibfA-(1→4)-a-D-GlcpA-(1→4)-β-D-Glcp-(1→6)-(3OAc)β-D-Glcp-(1→6)-(2OAc)β-D-Glcp-(1→4)-(2/3OAc)β-D-Glcp-(1→4)-β-D-Glcp-(1→3)-β-D-Galp [R7A EPS] [listing 1 of 2 here]”, the Kd in assay [1] is 38.1 ± 7.5 µM. Take S. meliloti EPS [listing 1 of 2 here]: the Kd in assay [1] was 222 ± 102 µM. Turning to `CC(=O)N[C@H]1[C@H](O[C@H]2[C@H](O)[C@@H](NC(C)=O)C(O)O[C@@H]2CO)O[C@H](CO)[C@@H](O[C@@H]2O[C@H](CO)[C@@H](O[C@@H]3O[C@H](CO)[C@@H](O)[C@H](O)[C@H]3NC(C)=O)[C@H](O)[C@H]2NC(C)=O)[C@@H]1O` (stereo partly shown) [chitotetraose], the binding result in assay [2] (FIG. 11I, n=3) is “did not bind; also recorded: absence of binding”. The “binding of EPR3a ED to polysaccharide (detectable or not)” value with L. japonicus EPR3a ED (n=3) was “absence of binding”; in the assay with L. japonicus EPR3a ED (n=3, listed as chitin), “did not bind”. For the compound `O=C(O)[C@H]1O[C@@H](O[C@H]2[C@H](O)[C@@H](O)[C@@H](O[C@H]3[C@H](O)[C@@H](O)[C@H](OC[C@H]4O[C@@H](OC[C@H]5O[C@@H](O[C@H]6[C@H](O)[C@@H](O)[C@H](O[C@H]7[C@H](O)[C@@H](O)[C@H](O[C@H]8[C@@H](O)[C@@H](CO)OC(O)[C@@H]8O)O[C@@H]7CO)O[C@@H]6CO)[C@H](O)[C@@H](O)[C@@H]5O)[C@H](O)[C@@H](O)[C@@H]4O)O[C@@H]3CO)O[C@@H]2C(=O)O)[C@H](O)[C@@H]1O` (stereo partly shown) [R7A deOAc-EPS], the equilibrium dissociation constant (Kd) in assay [1] stood at 31.3 ± 11.7 µM; in assay [2] (n=3, figure legend, read-out: equilibrium dissociation constant (Kd)) it was 57.2 ± 15.6 µM; in assay [2] (read-out: equilibrium dissociation constant of Kd), 57.2 ± 15.6 µM. Take “(2,3/3-OAc)β-D-RibfA-(1→4)-a-D-GlcpA-(1→4)-β-D-Glcp-(1→6)-(3OAc)β-D-Glcp-(1→6)-(2OAc)β-D-Glcp-(1→4)-(2/3OAc)β-D-Glcp-(1→4)-β-D-Glcp-(1→3)-β-D-Galp [R7A EPS] [listing 2 of 2 here]”: the Kd at L. japonicus EPR3a ED (FIG. 11C, R^2=0.98, read-out: equilibrium dissociation constant (Kd)) came out at 25.6 µM; at L. japonicus EPR3a ED (setting [3]), 44.4 ± 11.2 µM. With `CC(=O)N[C@H]1[C@H](O[C@H]2[C@H](O)[C@@H](NC(C)=O)[C@H](O[C@H]3[C@H](O)[C@@H](NC(C)=O)C(O)O[C@@H]3CO)O[C@@H]2CO)O[C@H](CO)[C@@H](O[C@@H]2O[C@H](CO)[C@@H](O[C@@H]3O[C@H](CO)[C@@H](O[C@@H]4O[C@H](CO)[C@@H](O)[C@H](O)[C@H]4NC(C)=O)[C@H](O)[C@H]3NC(C)=O)[C@H](O)[C@H]2NC(C)=O)[C@@H]1O` (stereo partly shown) [C06, Chitohexose], the binding entry in assay [1] was “unable to bind”. In the case of S. meliloti EPS [listing 2 of 2 here], the Kd at L. japonicus EPR3a ED (setting [3]) was determined as 937 ± 389 µM.

As usually defined, the Kd is the equilibrium constant for the complex coming apart.
